Source: ChEMBL document CHEMBL1201862, “PubChem BioAssay data set” (2004)
Active and inactive are the calls of the source.

Assays:
[1] = biological target: Troponin, cardiac muscle (Homo sapiens, UniProt P19429+P45379+P63316); assay: Fluorescence-based biochemical high throughput dose response assay for activators of the calcium sensitivity of cardiac Regulated Thin Filaments (RTF). [Related pubchem assays (depositor defined):AID493008, AID493018, AID504382, AID504383]; assay type: protein-complex assay
[2] = biological target: T1, Aminopeptidase N (Plasmodium falciparum FcB1/Columbia, UniProt O96935); assay: P. falciparum M1AAP inhibitors, biochemical, fluorogenic H-Leu-NHMec substrate, 1536-well (AID 1445); parameters: species or system Plasmodium falciparum 3D7, 3D7
T1 sequence (O96935 whole entry): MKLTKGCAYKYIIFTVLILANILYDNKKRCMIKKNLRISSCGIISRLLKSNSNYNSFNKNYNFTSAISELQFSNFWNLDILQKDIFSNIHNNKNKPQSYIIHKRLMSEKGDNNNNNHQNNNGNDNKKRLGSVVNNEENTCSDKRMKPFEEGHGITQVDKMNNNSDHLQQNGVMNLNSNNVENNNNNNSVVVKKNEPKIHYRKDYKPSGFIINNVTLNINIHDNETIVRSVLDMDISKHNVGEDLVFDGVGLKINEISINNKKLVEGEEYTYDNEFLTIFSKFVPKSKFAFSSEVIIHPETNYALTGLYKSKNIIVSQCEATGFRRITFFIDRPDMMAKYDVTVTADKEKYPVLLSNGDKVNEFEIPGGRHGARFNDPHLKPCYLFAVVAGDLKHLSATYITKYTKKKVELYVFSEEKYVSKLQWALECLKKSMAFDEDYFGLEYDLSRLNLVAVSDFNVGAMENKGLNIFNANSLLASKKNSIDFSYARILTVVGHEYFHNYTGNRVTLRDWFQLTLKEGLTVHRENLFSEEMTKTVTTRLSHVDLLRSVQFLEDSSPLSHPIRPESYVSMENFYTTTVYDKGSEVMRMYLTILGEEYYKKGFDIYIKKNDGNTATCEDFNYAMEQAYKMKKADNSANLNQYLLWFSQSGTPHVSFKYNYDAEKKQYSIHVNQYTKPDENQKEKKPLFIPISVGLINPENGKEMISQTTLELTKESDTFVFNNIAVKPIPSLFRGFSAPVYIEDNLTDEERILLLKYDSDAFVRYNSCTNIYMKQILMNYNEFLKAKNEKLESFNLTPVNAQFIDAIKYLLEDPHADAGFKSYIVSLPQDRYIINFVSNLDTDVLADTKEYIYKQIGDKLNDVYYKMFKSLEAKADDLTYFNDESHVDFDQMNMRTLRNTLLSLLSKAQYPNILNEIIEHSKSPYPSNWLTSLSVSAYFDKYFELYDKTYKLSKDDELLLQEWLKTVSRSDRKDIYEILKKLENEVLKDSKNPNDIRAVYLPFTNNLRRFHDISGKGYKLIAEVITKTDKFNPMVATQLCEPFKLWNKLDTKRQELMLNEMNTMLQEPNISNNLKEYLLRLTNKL

[3] = biological target: T2, DNA repair protein RAD52 homolog (Homo sapiens, UniProt P43351); assay type: functional, biochemical
T2 sequence (P43351 whole entry): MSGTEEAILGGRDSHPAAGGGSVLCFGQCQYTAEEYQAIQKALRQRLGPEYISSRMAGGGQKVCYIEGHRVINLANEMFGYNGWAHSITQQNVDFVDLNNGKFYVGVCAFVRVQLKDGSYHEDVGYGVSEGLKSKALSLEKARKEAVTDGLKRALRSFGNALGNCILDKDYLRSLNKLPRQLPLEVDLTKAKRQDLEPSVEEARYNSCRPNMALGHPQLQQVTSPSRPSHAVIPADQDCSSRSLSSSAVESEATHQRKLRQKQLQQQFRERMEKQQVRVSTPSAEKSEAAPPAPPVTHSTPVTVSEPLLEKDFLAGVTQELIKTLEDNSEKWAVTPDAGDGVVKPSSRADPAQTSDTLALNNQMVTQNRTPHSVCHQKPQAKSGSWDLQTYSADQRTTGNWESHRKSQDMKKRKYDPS

[4] = biological target: T3, Microphthalmia-associated transcription factor (Homo sapiens, UniProt O75030); assay: TRPM1 promoter luciferase signal decrease, dose response, MITF inhibitor project, cell-based, SK-MEL-5, cherry-picked, set 3 (AID 493073); assay type: functional
T3 sequence (O75030 whole entry): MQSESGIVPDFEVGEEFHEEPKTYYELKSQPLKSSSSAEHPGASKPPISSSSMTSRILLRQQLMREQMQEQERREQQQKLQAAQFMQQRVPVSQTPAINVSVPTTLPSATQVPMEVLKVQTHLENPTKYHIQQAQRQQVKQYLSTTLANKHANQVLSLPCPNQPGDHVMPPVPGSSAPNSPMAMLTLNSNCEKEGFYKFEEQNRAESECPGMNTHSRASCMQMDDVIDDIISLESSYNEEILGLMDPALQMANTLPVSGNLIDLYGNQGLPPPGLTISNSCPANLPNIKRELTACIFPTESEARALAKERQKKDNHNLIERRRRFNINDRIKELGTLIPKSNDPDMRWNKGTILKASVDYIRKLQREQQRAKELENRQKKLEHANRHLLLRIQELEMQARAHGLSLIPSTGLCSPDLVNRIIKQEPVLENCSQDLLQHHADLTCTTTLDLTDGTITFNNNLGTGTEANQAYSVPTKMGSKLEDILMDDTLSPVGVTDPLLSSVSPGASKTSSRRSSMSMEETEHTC

[5] = biological target: DNA dC->dU-editing enzyme APOBEC-3G (Homo sapiens, UniProt Q9HC16); assay: Dose Response confirmation of small molecule APOBEC3G DNA Deaminase Inhibitors via a fluorescence-based single-stranded DNA deaminase assay. [Related pubchem assays (depositor defined):AID493012, AID493028]; assay type: functional
Sequence of DNA dC->dU-editing enzyme APOBEC-3G (Q9HC16 whole entry): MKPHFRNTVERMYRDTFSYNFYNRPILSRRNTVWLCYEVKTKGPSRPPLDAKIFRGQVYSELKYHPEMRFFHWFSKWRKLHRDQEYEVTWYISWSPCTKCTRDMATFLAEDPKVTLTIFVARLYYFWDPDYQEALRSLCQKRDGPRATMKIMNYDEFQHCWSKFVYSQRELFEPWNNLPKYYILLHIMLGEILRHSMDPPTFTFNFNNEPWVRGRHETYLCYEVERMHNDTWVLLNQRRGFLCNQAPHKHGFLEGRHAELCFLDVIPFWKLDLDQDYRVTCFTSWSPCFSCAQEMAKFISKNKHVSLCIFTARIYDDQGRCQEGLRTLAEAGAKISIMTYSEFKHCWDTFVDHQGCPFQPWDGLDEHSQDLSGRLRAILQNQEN

[6] = biological target: T4, Cytochrome P450 1A2 (Homo sapiens, UniProt P05177);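 note: PubChem cytochrome P450 panel assay, CYP1A2 panel member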
T4 sequence (P05177 whole entry): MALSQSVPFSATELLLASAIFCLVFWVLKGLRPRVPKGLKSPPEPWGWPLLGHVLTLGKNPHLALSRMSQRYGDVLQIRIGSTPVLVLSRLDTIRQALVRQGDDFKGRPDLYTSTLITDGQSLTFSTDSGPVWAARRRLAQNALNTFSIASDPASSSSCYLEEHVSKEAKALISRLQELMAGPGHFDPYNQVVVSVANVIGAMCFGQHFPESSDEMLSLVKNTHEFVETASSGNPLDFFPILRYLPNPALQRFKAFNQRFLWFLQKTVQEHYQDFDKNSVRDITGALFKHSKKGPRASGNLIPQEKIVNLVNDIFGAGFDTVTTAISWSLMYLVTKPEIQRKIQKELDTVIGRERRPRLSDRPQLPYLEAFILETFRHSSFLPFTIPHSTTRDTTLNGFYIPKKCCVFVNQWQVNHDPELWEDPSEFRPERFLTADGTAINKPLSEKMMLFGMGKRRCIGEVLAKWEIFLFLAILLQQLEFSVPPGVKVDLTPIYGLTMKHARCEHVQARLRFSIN

[7] = biological target: Cytochrome P450 2C9 (Homo sapiens, UniProt P11712)
Sequence of Cytochrome P450 2C9 (P11712 whole entry): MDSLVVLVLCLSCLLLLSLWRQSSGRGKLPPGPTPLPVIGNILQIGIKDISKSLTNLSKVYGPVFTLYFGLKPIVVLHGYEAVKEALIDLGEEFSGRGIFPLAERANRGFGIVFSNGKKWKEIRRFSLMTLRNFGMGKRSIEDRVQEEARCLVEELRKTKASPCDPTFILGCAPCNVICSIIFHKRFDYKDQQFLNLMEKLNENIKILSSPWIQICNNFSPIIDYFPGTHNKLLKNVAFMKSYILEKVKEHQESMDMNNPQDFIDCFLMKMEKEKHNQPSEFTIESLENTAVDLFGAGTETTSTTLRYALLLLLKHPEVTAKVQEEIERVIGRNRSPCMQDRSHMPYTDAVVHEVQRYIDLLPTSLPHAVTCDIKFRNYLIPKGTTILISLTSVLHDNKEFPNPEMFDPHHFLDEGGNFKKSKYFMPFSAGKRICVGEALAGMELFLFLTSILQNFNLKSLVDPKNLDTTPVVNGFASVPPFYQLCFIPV

[8] = NIH-3T3 fibroblast cytotoxicity, dose response, cytotoxicity control, cell-based, fluorescence, Alamar Blue, secondary assay (AID 2327); assay type: functional;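 note: NIH-3T3 mouse fibroblasts cultured with fluconazole at 8 µg/mL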
[9] = C. albicans growth with fluconazole, confirmation, fluorescence, retest (AID 2467); assay type: functional, cell-based
[10] = biological target: Heat shock protein HSP 90-alpha (Homo sapiens, UniProt P07900); assay type: functional, organism-based
[11] = system: Vero; assay: cells; assay type: functional, cell-based; details: Chlorocebus sabaeus
[12] = system: INS1; assay: beta cell apoptosis inhibitors, cytokine rescue, dose response, luminescence, retest (AID 449756); assay type: functional, cell-based; details: Rattus norvegicus;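 note: cell death triggered by IL-1 beta plus TNF-alpha plus IFN-gamma mixture; protective hits raise ATP signal compared with cytokine alone wells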
[13] = system: Vero; assay: cells; assay type: functional; details: Chlorocebus sabaeus
[14] = biological target: Eukaryotic translation initiation factor 4E (Mus musculus, UniProt P63073); assay: eIF4E–eIF4G protein interaction inhibitors, dose response, biochemical, TR-FRET (AID 855); assay type: functional;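 note: potency for disrupting eIF4E binding to eIF4GI seen as loss of FRET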
Sequence of Eukaryotic translation initiation factor 4E (P63073 whole entry): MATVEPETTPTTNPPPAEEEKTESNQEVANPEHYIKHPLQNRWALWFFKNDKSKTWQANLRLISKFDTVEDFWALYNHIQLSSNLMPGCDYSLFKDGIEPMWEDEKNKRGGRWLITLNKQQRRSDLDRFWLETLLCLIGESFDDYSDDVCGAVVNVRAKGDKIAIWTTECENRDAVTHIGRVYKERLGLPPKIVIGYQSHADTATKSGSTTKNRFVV

[15] = biological target: Large T antigen (Simian virus 40, UniProt P03070); assay type: functional, Betapolyomavirus macacae;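 note: Confirmatory-stage PubChem screen for compounds that inhibit SV40 T antigen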
Sequence of Large T antigen (P03070 whole entry): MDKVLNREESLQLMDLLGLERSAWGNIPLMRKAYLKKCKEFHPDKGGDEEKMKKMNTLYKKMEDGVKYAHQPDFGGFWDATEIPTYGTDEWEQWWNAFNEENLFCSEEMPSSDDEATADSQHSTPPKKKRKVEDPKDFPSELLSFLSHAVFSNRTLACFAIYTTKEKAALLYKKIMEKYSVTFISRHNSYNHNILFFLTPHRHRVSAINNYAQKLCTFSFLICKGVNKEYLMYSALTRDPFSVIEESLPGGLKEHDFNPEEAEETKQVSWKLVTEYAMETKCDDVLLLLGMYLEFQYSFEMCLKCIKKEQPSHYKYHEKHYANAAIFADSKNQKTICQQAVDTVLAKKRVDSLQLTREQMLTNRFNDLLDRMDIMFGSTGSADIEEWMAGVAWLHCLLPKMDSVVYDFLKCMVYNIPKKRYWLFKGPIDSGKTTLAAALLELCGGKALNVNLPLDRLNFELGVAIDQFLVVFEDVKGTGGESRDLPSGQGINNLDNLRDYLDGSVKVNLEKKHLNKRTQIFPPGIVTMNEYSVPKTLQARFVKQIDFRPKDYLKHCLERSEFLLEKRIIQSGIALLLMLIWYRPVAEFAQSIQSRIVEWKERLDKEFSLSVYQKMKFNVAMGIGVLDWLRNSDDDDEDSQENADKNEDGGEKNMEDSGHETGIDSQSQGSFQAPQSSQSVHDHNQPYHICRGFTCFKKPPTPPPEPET

[16] = biological target: Cytochrome P450 2D6 (Homo sapiens, UniProt P10635);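 note: CYP2D6 member of a cytochrome P450 panel assay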
Sequence of Cytochrome P450 2D6 (P10635 whole entry): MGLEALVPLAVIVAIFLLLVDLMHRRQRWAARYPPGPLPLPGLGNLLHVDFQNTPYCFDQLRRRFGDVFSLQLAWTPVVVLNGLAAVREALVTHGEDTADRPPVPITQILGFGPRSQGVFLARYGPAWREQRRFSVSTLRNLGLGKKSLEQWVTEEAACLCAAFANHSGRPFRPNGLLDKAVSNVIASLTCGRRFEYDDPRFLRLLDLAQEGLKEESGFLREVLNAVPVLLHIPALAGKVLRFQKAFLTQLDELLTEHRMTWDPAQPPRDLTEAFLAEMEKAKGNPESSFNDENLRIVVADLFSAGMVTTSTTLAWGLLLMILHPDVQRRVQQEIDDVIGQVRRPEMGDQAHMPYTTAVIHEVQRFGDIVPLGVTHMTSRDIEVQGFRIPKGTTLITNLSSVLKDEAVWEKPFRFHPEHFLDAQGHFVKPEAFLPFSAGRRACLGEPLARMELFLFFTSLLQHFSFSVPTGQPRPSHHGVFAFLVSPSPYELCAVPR

[17] = biological target: T5, Protein skinhead-1 (Caenorhabditis elegans, UniProt P34707); assay type: functional
T5 sequence (P34707 whole entry): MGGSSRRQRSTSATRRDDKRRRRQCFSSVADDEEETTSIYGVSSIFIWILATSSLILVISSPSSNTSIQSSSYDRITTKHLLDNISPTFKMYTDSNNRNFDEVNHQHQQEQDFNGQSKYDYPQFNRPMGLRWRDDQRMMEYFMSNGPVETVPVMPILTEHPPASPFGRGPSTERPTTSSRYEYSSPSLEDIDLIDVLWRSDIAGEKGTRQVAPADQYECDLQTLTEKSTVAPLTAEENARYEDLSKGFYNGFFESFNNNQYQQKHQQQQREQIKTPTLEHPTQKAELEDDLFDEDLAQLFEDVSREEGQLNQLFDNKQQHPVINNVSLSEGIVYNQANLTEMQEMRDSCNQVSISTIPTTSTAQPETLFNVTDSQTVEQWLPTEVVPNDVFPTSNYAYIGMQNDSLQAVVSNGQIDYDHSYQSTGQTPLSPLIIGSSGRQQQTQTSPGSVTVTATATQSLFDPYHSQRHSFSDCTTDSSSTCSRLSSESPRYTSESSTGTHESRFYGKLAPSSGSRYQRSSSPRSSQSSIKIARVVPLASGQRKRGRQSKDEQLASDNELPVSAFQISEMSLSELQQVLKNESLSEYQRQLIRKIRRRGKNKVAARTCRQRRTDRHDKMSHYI

[18] = biological target: T6, Leucine aminopeptidase (Plasmodium falciparum 3D7, UniProt Q8IL11); assay: P. falciparum M17LAP inhibitors, primary screen, biochemical, fluorogenic H-Leu-NHMec substrate, 1536-well (AID 1619); assay type: functional
T6 sequence (Q8IL11 whole entry): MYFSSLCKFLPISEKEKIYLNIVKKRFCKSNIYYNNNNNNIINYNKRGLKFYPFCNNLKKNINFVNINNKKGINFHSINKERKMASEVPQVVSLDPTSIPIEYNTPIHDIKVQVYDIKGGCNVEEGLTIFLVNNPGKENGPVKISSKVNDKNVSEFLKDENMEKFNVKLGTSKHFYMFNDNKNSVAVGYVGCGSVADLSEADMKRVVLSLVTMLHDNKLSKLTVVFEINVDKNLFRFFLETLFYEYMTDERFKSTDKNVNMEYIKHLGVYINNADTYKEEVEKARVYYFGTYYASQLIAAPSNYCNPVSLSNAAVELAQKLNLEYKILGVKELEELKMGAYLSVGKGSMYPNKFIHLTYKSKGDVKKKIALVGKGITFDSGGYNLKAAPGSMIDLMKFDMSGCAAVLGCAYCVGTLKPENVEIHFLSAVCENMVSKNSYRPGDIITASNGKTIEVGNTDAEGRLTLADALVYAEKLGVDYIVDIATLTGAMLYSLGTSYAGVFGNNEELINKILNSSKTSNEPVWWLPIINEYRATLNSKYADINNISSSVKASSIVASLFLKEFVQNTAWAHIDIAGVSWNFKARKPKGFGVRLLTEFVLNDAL

## S=C(Nc1cc(Cl)ccc1Oc1ccccc1)N1CCN(c2ccccn2)CC1
[1]
  EC50: > 71.4 µM (inactive)

## CCc1nc(N=C(N)N)nc2ccccc12
[2]
  IC50: 48.5 µM (active)
[3]
  AC50: 20.2 µM (active)

## CC(NC(=O)C12CC3CC(CC(C3)C1)C2)C(=O)NN=Cc1ccc([N+](=O)[O-])o1 (stereo not drawn)
[4]
  AC50: 7.79 µM (active)

## O=C1NN=C(CSc2nnc(S)s2)CS1
[5]
  IC50: 9.78 µM (active)

## COc1cccc(Cn2c(=O)c(-c3cccs3)nc3cnc(N4CCN(C)CC4)nc32)c1
[6]
  AC50: 5.01 µM (inconclusive)
[7]
  AC50: inconclusive

## CN=C(S)N=Nc1c(O)[nH]c2ccccc12
[2]
  IC50: 47.9 µM (active)

## Cc1cc(OCc2nnn[nH]2)c2c3c(c(=O)oc2c1)CCCC3
[2]
  IC50: 68.9 µM (active)

## COc1ccccc1/C=C/C=C1\Oc2c(ccc(O)c2CN2CCN(CCO)CC2)C1=O
[1]
  EC50: 1.37 µM (active)

## C=CCn1c(=N)c(C(=O)NCCCOC)cc2c(=O)n3cccc(C)c3nc21
[2]
  IC50: 47.6 µM (active)

## Cc1ccc(S(=O)(=O)CC(O)CN2CCCC2=O)cc1 (stereo not drawn)
[7]
  AC50: inconclusive

## Sc1nnc(-c2ccccn2)n1/N=C/c1ccccc1
[5]
  IC50: 9.26 µM (active)

## CCCCOc1ccc(C(=O)NNC(=S)NC(=O)CC)cc1
[8]
  EC50: > 160 µM (inactive)
[9]
  EC50: 0.621 µM (active)
[10]
  AC50: 4.33 µM (active)
[11]
  IC50: 5.78 µM (active)
[12]
  AC50: 3.17 µM (active)
[13]
  CC50: 13.2 µM (active)

## O=C(Nc1cccc2ccccc12)c1ccc(Br)o1
[14]
  IC50: > 64 µM (inactive)

## COc1ccccc1NC(=O)c1ccc(NC(=O)c2cc3c(s2)CCC3)cc1
[14]
  IC50: > 64 µM (inactive)

## COC(COC(N)=O)C1=C(N2CC2)C(=O)C(C)=C(N2CC2)C1=O (stereo not drawn) [CARBOQUONE]
[11]
  IC50: > 25 µM (active)
[13]
  CC50: 0.3 µM (active)

## Cc1ccc(C2(C)NC(=O)N(CC(=O)Nc3nc(-c4ccccn4)cs3)C2=O)cc1 (stereo not drawn)
[15]
  IC50: > 100 µM (active)
[5]
  IC50: 25.6 µM (active)

## CN(C)c1ccc(-c2cc(Nc3ccc(F)cc3)ncn2)cc1
[16]
  AC50: 39.8 µM (inconclusive)
[7]
  AC50: inconclusive

## CCOC(=O)c1ccc2c(c1)nc(SCC(=O)c1cc3ccccc3o1)n2CC
[14]
  IC50: > 64 µM (inactive)
[17]
  IC50: > 100 µM (inactive)

## C/C(NCC1CCCO1)=C1/C(=O)NC(=O)N(c2ccccc2)C1=O (stereo not drawn)
[14]
  IC50: > 64 µM (inactive)

## COc1ccc(OC)c(N2C(=O)/C(=C/NCCN3CCNCC3)C(=O)NC2=S)c1
[1]
  EC50: > 71.5 µM (inactive)

## Cc1ccc(C(=O)Nc2nc(=O)n(C(=O)c3ccccc3Cl)s2)cc1
[18]
  IC50: 13.8 µM (active)
[2]
  IC50: 38.8 µM (active)
